Reference: paper PMC9965221, “Antiviral Mechanism of Virucidal Sialic Acid Modified Cyclodextrin” (Pharmaceutics, 2023)

Target: T1, recombinant HA (A/California/04/2009, Met1-Gln549) (Influenza A virus (A/California/04/2009(H1N1)), UniProt C3W5S1)
T1 construct: Met1-Gln549, His-tagged recombinant, immobilised on anti-His probes
Assay type: binding

T1 sequence (C3W5S1 entry or part of it, added parts left off): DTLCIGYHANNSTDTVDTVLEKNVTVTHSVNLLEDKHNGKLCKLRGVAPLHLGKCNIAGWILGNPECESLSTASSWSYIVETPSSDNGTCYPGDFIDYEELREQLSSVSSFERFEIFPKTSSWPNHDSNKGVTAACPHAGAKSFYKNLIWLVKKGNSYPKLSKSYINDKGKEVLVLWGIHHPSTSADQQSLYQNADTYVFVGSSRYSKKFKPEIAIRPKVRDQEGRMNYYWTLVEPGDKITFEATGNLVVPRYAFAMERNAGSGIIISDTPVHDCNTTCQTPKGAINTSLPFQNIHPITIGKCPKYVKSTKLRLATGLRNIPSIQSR

Structure (SMILES): CC(=O)N[C@H]1[C@H]([C@H](O)[C@H](O)CO)O[C@@](OC[C@H]2O[C@@H](O[C@H]3[C@H](O)[C@@H](NC(C)=O)C(O)O[C@@H]3CO)[C@H](O)[C@@H](O)[C@H]2O)(C(=O)O)C[C@@H]1O (stereo partly shown) [6′SLN]
- Kd: > 5 mM
